Measured values published in patent publication US20260158149A1, “GLYCOSYLATED PRODRUGS” (UNIVERSITEIT LEIDEN, priority 2021, published 2026).
Where two headings read alike, the source gives them in different places.

Columns and labels:
[1] = test system: collagen antibody-induced arthritis (CAIA)
regenerated tail fin = assay: Regeneration of the tail fin after wounding; type: in vivo, Zebrafish (Danio rerio); details: 5 dpf larvae, wounded at 2 dpf
Method: (§1) When the regeneration of the tail fins after wounding or the larval body length was used as a readout, chemical treatments of the embryos were started at 2 hours post fertilization (hpf) and continued until 5 dpf. During this period, solutions were refreshed daily. At 5 dpf, larvae were imaged using a LeicaMZ16FA fluorescence stereomicroscope supported by LAS 3.7 software, and the length of the larvae was measured using ImageJ software (15 larvae per treatment group). For the regeneration experiments, tail fins were amputated at 2 dpf and larvae were imaged at 5 dpf (15 larvae per treatment group). The newly grown tissue can be distinguished from the old tissue, enabling precise measurement of the size of the newly grown tissue using ImageJ software.

[2] = Whole-body glucose measurement in larvae
Method: Zebrafish embryos at 2 hpf received a chemical treatment, as indicated, with daily refreshment of the solutions, until 5 dpf. At 5 dpf, the larvae were collected in an Eppendorf tube and 100 μL of ice-cold glucose buffer was added to each sample. The larvae were homogenized using a BulletBlender® for 3 min at 8,000 rpm. The homogenates were then centrifuged at 4° C. for 8 min at 11000 rpm and the supernatant was stored at −20° C. Whole-body glucose concentrations were determined using a Glucose Colorimetric Assay kit (Cayman Chemical, USA), according to the manufacturer's instructions. In each experiment, three biological replicates were used for each treatment group, and the colorimetric assay was performed using technical duplicates.

IL-6 = assay: CAIA model: serum IL-6 by ELISA; type: in vivo, mouse
Method: All mice received 1.5 mg of a CAIA-cocktail (Chondrex) intravenously on day 1, followed by intraperitoneal (i.p.) injection of 50 μg LPS (Chondrex) on day 4. Mice were randomly divided into six groups. […] Scores were assigned blinded. […] The blood collection on day 14 was performed after 6 h fasting. On day 15, mice were sacrificed using carbon dioxide, and tissue samples were collected that were immediately frozen in liquid nitrogen. Applied humane endpoints were a total body weight loss of >20% in comparison to the day of LPS treatment or reaching an arthritis score of 45.
IL-6 concentrations were determined by ELISA in the serum collected at days 10 and 15, using the IL-6 mouse ELISA kit (Invitrogen), following the manufacturer's protocol. The insulin concentration was determined in serum collected at day 14, using the Ultra-sensitive mouse insulin ELISA kit (Crystal Chem), following the manufacturer's protocol. Corticosterone concentrations were determined in serum collected at day 15, using the Corticosterone HS (high sensitivity) enzyme immunoassay kit (Immunodiagnostic Systems), following the manufacturer's protocol. Expression levels of various GR target genes were determined by qPCR in the tissue samples (homogenized in TRIzol Reagent (ThermoFisher)) collected at day 15.

[3] = test system: Gr target genes fkbp5, pck1 and nfkbiaa; assay: qPCR of Gr target genes fkbp5, pck1, nfkbiaa; type: in vivo, Zebrafish (Danio rerio)
Method: (§2) For experiments in zebrafish, gene expression was measured using 3 dpf embryos. Groups of 15 larvae were collected in TRIzol reagent (Invitrogen) and mRNA was isolated using the miRNeasy mini kit (Qiagen), according to the manufacturer's instructions. For experiments in HeLa cells, samples were collected from a single well from 6 well plates (80% confluent) in TRIzol reagent and mRNA was isolated using the RNeasy mini kit. Zebrafish and cells samples were treated with DNAse utilizing the DNA-Free™ kit (Ambion). The cDNA synthesis was performed using iScript cDNA synthesis kit (Bio-Rad) using 1 μg of RNA per sample. For qPCR, 10 μM of forward and 10 μM of reverse primer, 12.5 μL of iQ SYBR Green Supermix (Bio-Rad), and 2 μL of cDNA were added to the qPCR reaction mixture. […] The qPCR reactions were performed on a MyiQ-single-color real-time PCR detection system (Bio-Rad) with initial denaturation for 3 min at 95° C. and 40 cycles of 15 s at 95.5° C., 15 s at 60° C., and 30 s at 72° C. Cycle threshold values (Ct values, i.e. the cycle numbers at which a threshold value of the fluorescence intensity was reached) were determined for each sample. The gene expression level for each sample was normalized using the expression of ppial (peptidylprolyl isomerase Ab (cyclophilin A)) for zebrafish samples, and 18S rRNA for human cells. The fold change per sample (compared to the respective control group) was calculated using the ΔΔCt method.

Larval body length = type: in vivo, Zebrafish (Danio rerio); details: 5 dpf, treatment from 2 hpf
Method: as §1

Gr = assay: Transactivation activity of Gr in Tg(9xGCRE-HSV.UI23:EGFP) reporter line; type: in vivo, Zebrafish (Danio rerio); details: 24 h treatment, 3 dpf larvae
Method: The Tg(9xGCRE-HSV.UI23:EGFP)^ia20 zebrafish reporter line expresses enhanced green fluorescent protein (EGFP) under the control of a promoter containing an array of nine GREs. To study the effect of chemical treatments on the transactivation activity of the Gr, 15 zebrafish embryos per group (2 dpf) were treated with the indicated compounds for 24 hours. The transactivation activity of Gr induced by the treatments was assessed using a LeicaMZ16FA fluorescence stereomicroscope supported by LAS 3.7 software. The integrated intensity of the EGFP signal in the larvae was determined using ImageJ software.

[4] = test system: il1b, il6, mmp9, mmp13, il8 mRNA; assay: qPCR of pro-inflammatory genes after tail wounding; type: in vivo, Zebrafish (Danio rerio)
From the text: For the tail fin amputation experiments, 3 days post fertilization (dpf) larvae from the Tg(mpx:GFP^i114/mpeg1:mCherry^umsF001) line were anesthetized in 0.02% buffered aminobenzoic acid ethyl ester (tricaine) in egg water and placed on a 2% agarose-coated petri dish. The tails were partially amputated with a 1 mm sapphire blade (World Precision Instruments) under a Leica M165C stereomicroscope (Leica Microsystems, Wetzlar, Germany). Chemical treatment (or 0.1% DMSO as vehicle treatment) was started at 2 h before the amputation (pretreatment) and was continued for 4 h after the tail fin amputation (20 larvae per group, unless indicated otherwise), at which time point the larvae were fixed in 4% paraformaldehyde (PFA) overnight at 4° C. and stored at 4° C. until further examination. In some experiments, a 24 h treatment with miglustat, ME656 or MZ31 was started at 2 dpf, and these treatments were continued during the pretreatment and treatment with the other chemicals. For imaging of larvae from the Tg(mpx:GFP^i114/mpeg1:mCherry^umsF001) line, a LeicaMZ16FA fluorescence stereomicroscope with LAS 3.7 software was used. Neutrophils were detected by GFP fluorescence and macrophages by mCherry fluorescence. The neutrophil numbers were determined by blinded manual counting in a pre-determined area. When larvae from gba2^−/− or gr^s357mutant lines were used, neutrophil labeling was performed with the TSA fluorescein detection kit (PerkinElmer) for specific staining of Myeloperoxidase (Mpx)-positive cells, following the manufacturer's instructions.
as §2

## C[C@]12C=CC(=O)C=C1CC[C@@H]1[C@@H]2[C@@H](O)C[C@@]2(C)[C@H]1CC[C@]2(O)C(=O)CO[C@@H]1O[C@H](CO[C@@H]2O[C@H](CO)[C@@H](O)[C@H](O)[C@H]2O)[C@@H](O)[C@H](O)[C@H]1O [GbPdn, 21-O-Gentobiose-Prednisolone]
[1]; 12.5 mg/kg i.p. daily from day 7
  day of maximal effect on arthritis score: 15 days
[1]; 25 mg/kg i.p. daily from day 7
  day of maximal effect on arthritis score: 14 days
[1]; 50 mg/kg i.p. daily from day 7
  day of maximal effect on arthritis score: 13 days
[1]; all dose groups, daily i.p. from day 7
  arthritis scores after treatment initiation: decreased rapidly after treatment initiation
Regenerated tail fin
  tissue regeneration (length of regenerated tail fin): small effect
Regenerated tail fin; GBA2 inhibitor MZ31
  tissue regeneration with MZ31: dependent on Gba2 activity
[2]; 5 dpf larvae treated from 2 hpf, non-wounded
  whole body glucose level: did not affect the glucose or cortisol concentration
[2]; 5 dpf larvae, wounded at 2 dpf
  whole body glucose level under wounding conditions: increase in glucose levels
IL-6; day 10, 12.5 mg/kg
  serum IL-6 level compared to other treated groups: slightly higher IL-6 concentration compared to the other groups
IL-6; day 10, all treatment groups
  serum IL-6 level compared to the vehicle group: significant reduction of the IL-6 level
IL-6; day 15, 12.5 mg/kg
  serum IL-6 level: a very low level was detected in two (out of four) mice
IL-6; day 15, all groups except 12.5 mg/kg GbPdn
  serum IL-6 level: undetectable
[3]
  expression of Gr target genes fkbp5, pck1 and nfkbiaa: lack of effect
Larval body length
  larval length: neither did it affect the length of the larvae
Gr
  transactivation activity of Gr (GFP signal in GRE:GFP reporter fish line): neither GPdn nor GbPdn induced the transactivation activity of the Gr
[4]
  expression of the pro-inflammatory genes il1b, il6 and il8: suppression of the expression
